Test results published in ChEMBL document CHEMBL1132558, “A new single-photon emission computed tomography imaging agent for serotonin transporters: [123I]IDAM, 5-iodo-2-((2-((dimethylamino)methyl)phenyl)thio)benzyl alcohol” (J Med Chem, 1999).

Assays:
Rattus norvegicus [1] = species on record: Rattus norvegicus; test: Concentration inhibiting norepinephrine uptake in rat brain synaptosomes.; format: functional
Rattus norvegicus [2] = species on record: Rattus norvegicus; test: Concentration inhibiting serotonin uptake in rat brain synaptosomes.; format: functional
[3] = target: T1, Sodium-dependent dopamine transporter (Homo sapiens, UniProt Q01959); test: In vitro binding affinity against Dopamine transporter in LLC-PK1 cell membranes.; format: cell-based, Sus scrofa
T1 sequence (Q01959 whole entry): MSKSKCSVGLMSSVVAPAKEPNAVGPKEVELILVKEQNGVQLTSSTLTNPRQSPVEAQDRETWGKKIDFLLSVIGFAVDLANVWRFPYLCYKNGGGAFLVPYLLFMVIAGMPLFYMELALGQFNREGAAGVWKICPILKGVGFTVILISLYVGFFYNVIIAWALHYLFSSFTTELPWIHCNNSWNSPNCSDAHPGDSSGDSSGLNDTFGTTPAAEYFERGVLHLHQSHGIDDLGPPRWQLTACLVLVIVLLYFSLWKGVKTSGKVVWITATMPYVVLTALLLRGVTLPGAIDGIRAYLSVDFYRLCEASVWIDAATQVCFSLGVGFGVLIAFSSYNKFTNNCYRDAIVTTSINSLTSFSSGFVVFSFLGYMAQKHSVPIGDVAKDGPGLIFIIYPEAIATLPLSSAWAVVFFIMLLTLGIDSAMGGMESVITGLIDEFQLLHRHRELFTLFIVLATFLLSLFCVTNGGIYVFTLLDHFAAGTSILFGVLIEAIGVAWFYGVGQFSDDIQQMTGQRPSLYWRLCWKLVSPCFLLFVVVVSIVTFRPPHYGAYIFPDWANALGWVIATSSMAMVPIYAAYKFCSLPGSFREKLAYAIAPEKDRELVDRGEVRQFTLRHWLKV

[4] = target: Sodium-dependent serotonin transporter (Homo sapiens, UniProt P31645); test: In vitro binding affinity against Serotonin transporter (SERT) from LLC-PK1 cell membranes.; format: cell-based, Sus scrofa
Chain of Sodium-dependent serotonin transporter (P31645 whole entry): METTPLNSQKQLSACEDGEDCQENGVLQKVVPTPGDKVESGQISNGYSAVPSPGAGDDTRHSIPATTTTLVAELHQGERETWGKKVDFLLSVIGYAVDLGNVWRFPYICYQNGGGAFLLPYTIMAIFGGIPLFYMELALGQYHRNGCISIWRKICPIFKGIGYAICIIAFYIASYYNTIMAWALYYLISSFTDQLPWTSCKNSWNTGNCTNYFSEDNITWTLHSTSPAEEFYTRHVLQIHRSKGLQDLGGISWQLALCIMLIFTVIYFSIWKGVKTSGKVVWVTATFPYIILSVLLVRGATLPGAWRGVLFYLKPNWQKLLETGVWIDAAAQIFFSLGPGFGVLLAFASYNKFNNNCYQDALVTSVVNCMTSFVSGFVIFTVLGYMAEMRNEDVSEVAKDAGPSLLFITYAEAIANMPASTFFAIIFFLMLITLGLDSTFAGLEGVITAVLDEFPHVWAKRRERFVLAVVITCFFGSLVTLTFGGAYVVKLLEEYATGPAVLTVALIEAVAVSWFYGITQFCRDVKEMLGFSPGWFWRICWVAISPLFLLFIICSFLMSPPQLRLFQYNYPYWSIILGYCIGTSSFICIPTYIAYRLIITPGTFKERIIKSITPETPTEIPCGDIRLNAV

[5] = target: T1, Sodium-dependent dopamine transporter; test: Concentration inhibiting Dopamine transporter
Rattus norvegicus [6] = species on record: Rattus norvegicus; test: Concentration inhibiting 5-HT reuptake in rat brain synaptosomes.; format: functional

| Compound | Ki (Rattus norvegicus [1]) | Ki (Rattus norvegicus [2]) | Ki [3] | Ki [4] | Ki [5] | Ki (Rattus norvegicus [6]) |
| --- | --- | --- | --- | --- | --- | --- |
| CN(C)Cc1ccccc1Sc1ccc(Cl)cc1CO | 55 nM | 2.1 nM | – | – | – | – |
| CN(C)Cc1ccccc1Sc1ccc(I)cc1CO | – | – | > 10000 nM | 0.097 nM | – | – |
| CN(C)Cc1ccccc1Sc1ccc(Br)cc1CO | – | – | > 10000 nM | 0.52 nM | – | – |
| CSc1ccc([C@H]2CN3CCC[C@H]3c3ccccc32)cc1 | – | – | 112 nM | – | 23.5 nM | 0.4 nM |
